Source: patent publication US9738657B2, “Highly efficient polarizing agents for dynamic nuclear polarization” (Bruker Biospin S.A.S., priority 2013, dated 2017)
In brackets after ≈: the same amount, converted by molar mass.

Experiment: Solubility in Glycerol/H2O (60/40)
Settings: for solubility: glycerol/water (60/40), aqueous with cosolvent or surfactant or cyclodextrin

Row | Molecule | Solubility in Glycerol/H2O (60/40) [mM] | solubility [mM]
1 | 4,4-ureylene-di-(2,2,6,6-tetramethylpiperidinyloxyl) [bTUrea, reference compound] | ~3 | –
2 | [O]N1C2(CCOCC2)CC(NC(=O)NC2CC3(CCOCC3)N([O])C3(CCOCC3)C2)CC12CCOCC2 (stereo not shown) [Compound 56, (15-{[(7-Oxyl-3,11-dioxa-7-azadispiro[5.1.5.3]hexadec-15-yl)carbamoyl]amino}-[3,11-dioxa-7-azadispiro[5.1.5.3]hexadec-7-yl])oxidanyl] | – | ~25 (≈ 13.4 mg/mL)
3 | COCCOCCOCCOCCOC1CN(C2CC3(CCOCC3)N([O])C3(CCOCC3)C2)C(=O)N(C2CC3(CCOCC3)N([O])C3(CCOCC3)C2)C1 (stereo not shown) [Compound 70, 1,3-Bis(7-oxyl-3,11-dioxa-7-azadispiro[5.1.5.3]hexadec-15-yl)-5-(2,5,8,11-tetraoxatridecan-13-yloxy)tetrahydropyrimidin-2(1H)-one] | – | > 10
4 | O=C(NC1CC2(CCOCC2)N(O)C2(CCOCC2)C1)N(CCOCCO)C1CC2(CCOCC2)N(O)C2(CCOCC2)C1 (stereo not shown) [Compound 71, (15-{[(7-Oxyl-3,11-dioxa-7-azadispiro[5.1.5.3]hexadec-15-yl)carbamoyl][2-(2-hydroxyethoxy)ethyl]amino}-[3,11-dioxa-7-azadispiro[5.1.5.3]hexadec-7-yl])oxidanyl] | – | > 20
5 | (4-{3-[1-(PEG)-1H-1,2,3-Triazol-4-yl]propyl}[(1-oxyl-2,2,6,6-tetramethylpiperidin-4-yl)carbamoyl]amino}-2,2,6,6-tetramethylpiperidin-1-yl)oxidanyl [Compound 61] | ~20 | –
6 | (4-{(2,5,8,11-tetraoxatridecan-13-yl)[(1-oxyl-2,2,6,6-tetramethyl piperidin-4-yl)carbamoyl]amino}-2,2,6,6-tetramethylpiperidin-1-yl)oxidanyl [Compound 52] | ~10 | –
7 | (4-{[2-(2-methoxyethoxy)ethyl][(1-oxyl-2,2,6,6-tetramethylpiperidin-4-yl)carbamoyl]amino}-2,2,6,6-tetramethylpiperidin-1-yl)oxidanyl [Compound 51] | ~10 | –
8 | (15-{[(7-oxyl-3,11-dioxa-7-azadispiro[5.1.5.3]hexadec-15-yl)carbamoyl][2-(2,5,8,11-tetraoxatridecan-13-ylamino)}-[3,11-dioxa-7-azadispiro[5.1.5.3]hexadec-7-yl])oxidanyl [Compound 58] | ~25 | –
9 | (15-{[(7-oxyl-3,11-dioxa-7-azadispiro[5.1.5.3]hexadec-15-yl)carbamoyl][2-(2-methoxyethoxy)ethyl]amino}-[3,11-dioxa-7-azadispiro[5.1.5.3]hexadec-7-yl])oxidanyl [Compound 57] | ~25 | –
10 | α-{(7-Oxyl-3,11-dioxa-7-azadispiro[5.1.5.3]hexadec-15-yl)[(7-oxyl-3,11-dioxa-7-azadispiro[5.1.5.3]hexadec-15-yl)carbamoyl]amino}ω-methylpoly(ethane-1,2-diyloxy) [Compound 72] | >20 | –
